Measurements taken from patent US20260014227A1, “DESLORELIN USE IN CHEMICAL CASTRATION OF A NON-HUMAN MAMMAL RELATED TO PK/PD INTERACTION” (priority 2022, published 2026).
Values joined by “and” are separate entries in the source; they are usually repeats but may differ in a detail not shown here. Equal values may be shown once.

What was measured:
[1] = parameters: species or system cat; conditions: in vivo
Procedure: • study period: D0-560 (18 months)· • n=20 adults, sexually mature intact male cats • blinded, randomized • Suprelorin® group: n=16=>4.7 mg Suprelorin® SC, neck • Control group: n=4=>0.5 ml saline SC, neck
Blood samples were collected from 16 healthy, intact male cats that had received a deslorelin implant. Samples were analyzed using a validated liquid chromatography coupled to tandem mass spectrometry (LC-MS/MS) method after solid extraction using Oasis® WCX uElution plate. […] Concentrations measured below the lower limit of quantification (LLOQ) of 4 pg/mL were reported as BLQ (Below the Limit of Quantification).
Non-compartmental pharmacokinetic analysis of individual deslorelin concentrations in feline plasma was performed using Phoenix® software (WinNonlin 8.0, NLME 1.6, Certara L. P., Pharsight, St. Louis, MO, USA) to estimate the pharmacokinetic parameters of deslorelin.

testosterone = assay: Correlation between deslorelin and testosterone concentration (Example 4); type: in vivo, cat; conditions: 16 male cats, 4.7 mg implant; assessed graphically
Procedure: The serum concentration of testosterone was measured according to the protocol detailed in example 2, point 2.1.
The plasmatic concentration of deslorelin was measured according to the protocol detailed in example 1, point 1.1.

intact male cats [2] = assay: Testicular size by calipers (Example 7); type: in vivo, cat; conditions: treated cats
in vivo [3] = type: in vivo, dog; conditions: male, dog, in vivo, 4.7 mg
testosterone, LH and FSH = assay: in vivo; type: in vivo, dog; conditions: assessed graphically
male cats = assay: Cat field studies 1 and 2: suppression of fertility, reversibility, behaviour, safety (Example 12); type: in vivo
Description: The efficacy and safety of the re-implantation was followed-up for these supplementary 12 months, i.e. for a total of 24 months.
The observation schedule was as follows: • Study 1: V1: Day −14 to −7; V2: Day 0; V3: 1.5 months±3 days; V4: 3 months±5 days, V5: 6 months±5 days, V6: 9 months±5 days; V7: 12 months #5 days; • Study 2: V8: 12 months±3 days; V9: 13.5 months±3 days; V10: 15 months±5 days; V11: 18 months±5 days; V12: 21 months±5 days; V13: 24 months±5 days.
Regarding the enrolment criteria, in both studies the criteria were as the following: • Domestic Cats • Age >3 MONTHS old or >15 MONTHS in Study 2 • Intact Indoor males • Client-owned (including shelter cats/rehomed by foster families)
In these studies the following primary endpoints were measured: • For Study 1: the suppression of fertility (Testosterone≤0.10 ng/ml* from V4 until V7*-3 to 12 months) • Study 2: the suppression of fertility (Testosterone≤0.10 ng/mL*from V8 until V13 (12 to 24 months) and the time to reversion effect. […]

intact male cats [4] = assay: PK/PD preclinical study in 15-week-old male cats: penile spines, behaviour, puberty, reversal (Example 13); type: in vivo, cat; conditions: treated at 15 weeks of age
Description: On D14, the three spare cats were removed from the study. Five+3 female cats (Group 3), pubescent at study start, were included in the study solely to assess the reproductive behavior of male cats. They were not treated with the implant. • Duration: 18 Study Months post-injection (PI) (D502/Week 72, i.e., 16.5 calendar months)

prepubertal female dogs = assay: Delay of puberty onset in prepubertal female dogs (Example 14); type: in vivo, dog
Description: The aim of this study was to evaluate the delay of puberty onset in prepubertal female dogs. As known the puberty begins with the setting up of several parameters: • Increasing number of receptors in central nervous system (CNS) and gonads • Desensitization of hypothalamus/pituitary towards estrogens • Ripening of the gonads and the secondary sexual organs • Follicle ripening, spermatogenesis

cat = assay: Safety study in cat, high dose; type: in vivo
[5] = in vivo
Procedure: Samples were collected from 10 intact male cats treated with Suprelorin® 4.7 implant. Samples (based on a plasma volume of 150 μL, treated with K2-EDTA as anticoagulant) were analyzed by a LC-MS/MS method after a solid extraction phase using μElution Oasis® WCX plates. The compound (13C, 15N)-Leu (7)-deslorelin was used as a standard. The calibration range was 4 pg/mL-2000 pg/mL.

[6] = dog, in vivo
prepubertal bitches = conditions: cited from earlier work
in vivo [7] = conditions: male, dog, 4.7 mg
male dogs = conditions: cited from earlier work

## CCNC(=O)[C@@H]1CCCN1C(=O)[C@H](CCCN=C(N)N)NC(=O)[C@H](CC(C)C)NC(=O)[C@@H](Cc1c[nH]c2ccccc12)NC(=O)[C@H](Cc1ccc(O)cc1)NC(=O)[C@H](CO)NC(=O)[C@H](Cc1c[nH]c2ccccc12)NC(=O)[C@H](Cc1cnc[nH]1)NC(=O)[C@@H]1CCC(=O)N1 [deslorelin]
[1]
  Time deslorelin remains present in the blood: up to 560 days
testosterone
  Deslorelin concentration below which testosterone started to increase: < 12 pg/mL
Intact male cats [2]
  Effect on testicular volume: induced a decrease in testicular volume
In vivo [3]
  level at 5376 h: 12 ± 10.4 pg/mL
testosterone, LH and FSH
  Deslorelin concentration below which testosterone/LH/FSH concentrations started to increase: 12 pg/mL and < 12 pg/mL
Male cats; male cats
  Duration of effective chemical castration: at least 12 months
Male cats; sexual behaviors
  Onset of efficacy in behavioral reduction: 7 to 31 days
Intact male cats [4]
  Duration of delay of puberty onset: at least 1 year
Prepubertal female dogs; with 1 implant
  Findings in prepubertal female dogs: no disturbance of body development, the vulva size was normal, but delayed epiphyseal closure
Prepubertal female dogs; with 3 implants every 4.5 Mo
  Findings in prepubertal female dogs: vulva stayed juvenile and the effect was comparable to prepubertal castration
cat
  Safety findings: neither serious adverse events nor live threatening events
[5]
  Time deslorelin remains in the blood: up to 497 days
[6]
  Study day until which plasma deslorelin was quantifiable: 441
Prepubertal bitches; prepubertal bitch
  Delay of puberty: at least 4.5 months
Prepubertal bitches; prepubertal bitches
  Progesterone (P4), mean: 0.6 ± 0.2 ng/mL
In vivo [7]
  level at 10584 h: 2 pg/mL
Male dogs; dog, in vivo
  Presence of deslorelin: 2.5 months
Male dogs; dogs
  Duration of observed effect: at least 6 months
Male dogs; following administration
  Persistent pharmacological effect by plasma testosterone: at least 12 months
